Data as given in PubChem BioAssay (NCI).
“And” between values parts separate entries of the source, which are not always exact repeats. Identical values can stand only once.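 Method: 48-hour compound exposure of cells in 96-well plates, five concentrations, linear interpolation of endpoints. GI50 = concentration required for 50% inhibition of growth. TGI denotes the concentration required for complete inhibition of growth.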

Experiments:
Test in all cases: NCI tumour cell line growth inhibition, 48 h
[1] = test system: 786-0 renal
[2] = test system: A498 renal
[3] = test system: A549 NSCLC
[4] = test system: ACHN renal
[5] = test system: BT-549 breast
[6] = test system: CAKI-1 renal
[7] = test system: CCRF-CEM leukemia
[8] = test system: COLO 205 colon
[9] = test system: DU-145 prostate
[10] = test system: EKVX NSCLC
[11] = test system: HCC-2998 colon
[12] = test system: HCT-116 colon
[13] = test system: HCT-15 colon
[14] = test system: HL-60(TB) leukemia
[15] = test system: HOP-62 NSCLC
[16] = test system: HOP-92 NSCLC
[17] = test system: HS 578T breast
[18] = test system: HT29 colon
[19] = test system: IGROV1 ovarian
[20] = test system: K-562 leukemia
[21] = test system: KM12 colon
[22] = test system: LOX IMVI melanoma
[23] = test system: M14 melanoma
[24] = test system: MALME-3M melanoma
[25] = test system: MCF7 breast
[26] = test system: MDA-MB-231 breast
[27] = test system: MDA-MB-435
[28] = test system: MDA-N
[29] = test system: MOLT-4 leukemia
[30] = test system: NCI-H226 lung
[31] = test system: NCI-H23 lung
[32] = test system: NCI-H460 lung
[33] = test system: NCI-H522 lung
[34] = test system: NCI/ADR-RES ovarian
[35] = test system: OVCAR-3 ovarian
[36] = test system: OVCAR-4 ovarian
[37] = test system: OVCAR-5 ovarian
[38] = test system: OVCAR-8 ovarian
[39] = test system: PC-3 prostate
[40] = test system: RPMI-8226 leukemia
[41] = test system: RXF 393 renal
[42] = test system: SF-268 CNS
[43] = test system: SF-295 CNS
[44] = test system: SF-539 CNS
[45] = test system: SK-MEL-2 melanoma
[46] = test system: SK-MEL-28 melanoma
[47] = test system: SK-MEL-5 melanoma
[48] = test system: SK-OV-3 ovarian
[49] = test system: SN12C renal
[50] = test system: SNB-19 CNS
[51] = test system: SNB-75 CNS
[52] = test system: SR leukemia
[53] = test system: SW-620 colon
[54] = test system: T-47D breast
[55] = test system: TK-10 renal
[56] = test system: U251 CNS
[57] = test system: UACC-257 melanoma
[58] = test system: UACC-62 melanoma
[59] = test system: UO-31 renal

Compound: C=CC(=O)C#Cc1cnc(OC)nc1OC
- TGI [1]: 12.6 µM
- TGI [2]: > 69.1 µM
- TGI [3]: > 100 µM
- TGI [4]: 23.6 µM
- TGI [5]: 17.5 µM
- TGI [6]: 21.1 µM
- TGI [7]: 2.97 µM
- TGI [8]: 13.3 µM
- TGI [9]: > 100 µM
- TGI [10]: > 72 µM
- TGI [11]: 42.2 µM
- TGI [12]: 26.1 µM
- TGI [13]: 24.6 µM
- TGI [14]: 3.25 µM
- TGI [15]: 45.7 µM
- TGI [16]: > 54.3 µM
- TGI [17]: > 88.3 µM
- TGI [18]: > 54.4 µM
- TGI [19]: 53.6 µM
- TGI [20]: 3.84 µM
- TGI [21]: 30 µM
- TGI [22]: 20.5 µM
- TGI [23]: 37.7 µM
- TGI [24]: 53.3 µM
- TGI [25]: 30.6 µM
- TGI [26]: 38.1 µM
- TGI [27]: 51.5 µM
- TGI [28]: 40.5 µM
- TGI [29]: 4.13 µM
- TGI [30]: > 92.7 µM
- TGI [31]: 37.6 µM
- TGI [32]: > 59.9 µM
- TGI [33]: 42.7 µM
- TGI [34]: > 86.7 µM
- TGI [35]: 33.7 µM
- TGI [36]: 42.3 µM
- TGI [37]: 33.9 µM
- TGI [38]: > 73.6 µM
- TGI [39]: 42 µM
- TGI [40]: 6.93 µM
- TGI [41]: > 66.2 µM
- TGI [42]: > 71.9 µM
- TGI [43]: > 100 µM
- TGI [44]: 30.5 µM
- TGI [45]: 59.7 µM
- TGI [46]: > 47 µM
- TGI [47]: 43.5 µM
- TGI [48]: > 100 µM
- TGI [49]: 37.7 µM
- TGI [50]: > 58.9 µM
- TGI [51]: 20.5 µM
- TGI [52]: 6.15 µM
- TGI [53]: 23.4 µM
- TGI [54]: 55.8 µM
- TGI [55]: 35.2 µM
- TGI [56]: 18.7 µM
- TGI [57]: 20.3 µM
- TGI [58]: 34.4 µM
- TGI [59]: 33.5 µM

Compound: NC(=O)NC(=O)Nc1ccc(Br)cc1
- TGI [1]: > 100 µM
- TGI [2]: > 100 µM
- TGI [3]: > 100 µM
- TGI [4]: > 30.3 µM
- TGI [5]: > 100 µM
- TGI [6]: > 35.1 µM
- TGI [7]: > 15.3 µM
- TGI [8]: > 28.8 µM
- TGI [9]: > 100 µM
- TGI [10]: 48.4 µM
- TGI [11]: > 31.9 µM
- TGI [12]: > 49.6 µM
- TGI [13]: > 65.4 µM
- TGI [14]: > 6.62 µM
- TGI [15]: > 30.8 µM
- TGI [16]: > 100 µM
- TGI [17]: > 100 µM
- TGI [19]: > 100 µM
- TGI [20]: > 100 µM
- TGI [21]: > 32.8 µM
- TGI [22]: > 56.9 µM
- TGI [23]: > 45.1 µM
- TGI [24]: > 27.9 µM
- TGI [25]: > 100 µM
- TGI [26]: > 42.1 µM
- TGI [27]: > 22 µM
- TGI [28]: > 100 µM
- TGI [29]: > 100 µM
- TGI [30]: > 39.1 µM
- TGI [31]: > 33.3 µM
- TGI [32]: > 36.4 µM
- TGI [33]: > 40 µM
- TGI [34]: > 63.5 µM
- TGI [35]: > 20.7 µM
- TGI [36]: > 38.5 µM
- TGI [37]: > 100 µM
- TGI [38]: > 34.6 µM
- TGI [39]: > 100 µM
- TGI [40]: > 35 µM
- TGI [41]: > 100 µM
- TGI [42]: > 16.5 µM
- TGI [43]: > 100 µM
- TGI [44]: > 100 µM
- TGI [45]: > 20.7 µM
- TGI [46]: > 17.7 µM
- TGI [47]: > 18.6 µM
- TGI [48]: > 100 µM
- TGI [49]: > 100 µM
- TGI [50]: > 39.3 µM
- TGI [52]: > 100 µM
- TGI [53]: > 29.4 µM
- TGI [54]: > 100 µM
- TGI [55]: > 100 µM
- TGI [56]: > 52.3 µM
- TGI [57]: > 100 µM
- TGI [59]: > 100 µM

Compound: COc1ccc(/C=C/C(=O)OC2CC34CCNC35CC(OC5(OC)C2OC)c2ccc(OC)c(O)c24)cc1O (centres undefined)
- GI50 [1]: 22.2 µM and > 100 µM
- TGI [1]: 52.3 µM and > 100 µM
- TGI [2]: > 100 µM
- TGI [3]: > 100 µM
- TGI [4]: > 100 µM
- TGI [5]: > 100 µM
- TGI [6]: > 100 µM
- GI50 [7]: 30.8 µM and > 100 µM
- TGI [7]: > 100 µM
- GI50 [8]: 18.4 µM and > 100 µM
- TGI [8]: 35.7 µM and > 100 µM
- TGI [9]: > 100 µM
- TGI [10]: > 100 µM
- GI50 [11]: 30.6 µM and > 100 µM
- TGI [11]: 94.2 µM and > 100 µM
- GI50 [12]: 47.2 µM and > 100 µM
- TGI [12]: > 100 µM
- TGI [13]: > 100 µM
- TGI [14]: 62.8 µM
- TGI [15]: > 100 µM
- TGI [16]: > 100 µM
- TGI [17]: > 100 µM
- GI50 [18]: 19.7 µM and > 100 µM
- TGI [18]: 43.6 µM and > 100 µM
- TGI [19]: > 100 µM
- GI50 [20]: 33.7 µM and > 100 µM
- TGI [20]: > 100 µM
- GI50 [21]: 31.6 µM and > 100 µM
- TGI [21]: > 100 µM
- GI50 [22]: 30.4 µM and > 100 µM
- TGI [22]: 76.5 µM and > 100 µM
- TGI [23]: > 100 µM
- GI50 [24]: 11.3 µM and > 100 µM
- TGI [24]: 50.9 µM and > 100 µM
- TGI [25]: > 100 µM
- GI50 [26]: 49.7 µM and > 100 µM
- TGI [26]: > 100 µM
- TGI [27]: > 100 µM
- TGI [28]: > 100 µM
- GI50 [29]: 22.4 µM and > 100 µM
- TGI [29]: 93.1 µM and > 100 µM
- TGI [30]: > 100 µM
- TGI [31]: > 100 µM
- TGI [32]: > 100 µM
- GI50 [33]: 49.6 µM and > 100 µM
- TGI [33]: > 100 µM
- TGI [34]: > 100 µM
- GI50 [35]: 35.5 µM and > 100 µM
- TGI [35]: > 100 µM
- TGI [36]: > 100 µM
- TGI [37]: > 100 µM
- TGI [38]: > 100 µM
- GI50 [39]: 38.9 µM and > 100 µM
- TGI [39]: > 100 µM
- GI50 [40]: 34.6 µM and > 100 µM
- TGI [40]: > 100 µM
- GI50 [41]: 21.6 µM and > 100 µM
- TGI [41]: 65.6 µM and > 100 µM
- TGI [42]: > 100 µM
- TGI [43]: > 100 µM
- TGI [44]: > 100 µM
- TGI [45]: > 100 µM
- TGI [46]: > 100 µM
- TGI [47]: > 100 µM
- TGI [48]: > 100 µM
- TGI [49]: > 100 µM
- TGI [50]: > 100 µM
- GI50 [51]: 14 µM and > 100 µM
- TGI [51]: 92.7 µM and > 100 µM
- GI50 [52]: 25.4 µM and > 100 µM
- TGI [52]: > 100 µM
- TGI [53]: > 100 µM
- TGI [54]: > 100 µM
- TGI [55]: > 100 µM
- GI50 [56]: 38.2 µM and > 100 µM
- TGI [56]: > 100 µM
- TGI [57]: > 100 µM
- TGI [58]: > 100 µM
- TGI [59]: > 100 µM
